Laboratory results: US6281214A, “Biphenyl derivatives” (Eisai Co., Ltd, priority 1994, dated 2001)
Like-named read-outs stand apart in the source and are kept apart here.

Columns and labels:
Design in all cases: species or system SD rats
serotonin S2 receptor = biological target: T1, serotonin S2 receptor (Rattus norvegicus, UniProt P14842); test: serotonin S2 receptor binding test ([3H] Ketanserin Binding Test); conditions: 1 nM [3H] Ketanserin, rat cortex, 37° C., 15 minutes
T1 construct: The receptor fraction prepared from the cortex was molten and suspended; from tissue; host or cells: cerebral cortex of SD rats (membrane fraction)
How it was run: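 Rat (SD, 6–8 weeks) cortical membranes in 50 mM Tris-HCl pH 7.4 were incubated with 1 nM [3H]ketanserin for 15 min at 37 °C, then filtered and counted. Nonspecific binding was defined with methysergide. IC50 was obtained by probit analysis and converted to Ki using the Scatchard-derived Kd.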

dopamine D2 receptor = biological target: T2, dopamine D2 receptor (Rattus norvegicus, UniProt P61169); test: dopamine D2 receptor binding test ([3H] Spiperone Binding Test); conditions: 1 nM [3H] Spiperone, rat corpus striatum, room temperature, 60 minutes
T2 construct: the receptor fraction prepared from the corpus striatum was molten and suspended; from tissue; host or cells: corpus striatum of SD rats (membrane fraction)
How it was run: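 Rat (SD, 6–8 weeks) corpus striatum membranes in 50 mM Krebs-Tris pH 7.4 were incubated with 1 nM [3H]spiperone at room temperature for 60 minutes, with nonspecific binding defined by excess spiperone. IC50 came from probit analysis; Ki was derived using radioligand concentration and Scatchard Kd.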

adrenergic α1 receptor = adrenergic α1 receptor binding test ([3H] Prazosin Binding Test); conditions: 1 nM [3H] Prazosin, rat cortex, room temperature, 60 minutes
How it was run: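 Rat (SD, 6-8 weeks) cerebral cortex membranes in 50 mM Tris-HCl pH 7.4 incubated with 1 nM [3H]prazosin for 60 min at room temperature; nonspecific binding defined with phentolamine. IC50 by probit method, converted to Ki using radioligand concentration and Scatchard-derived Kd.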

[1] = read-out: Ki value, dopamine D2 receptor

T1 sequence (P14842 whole entry): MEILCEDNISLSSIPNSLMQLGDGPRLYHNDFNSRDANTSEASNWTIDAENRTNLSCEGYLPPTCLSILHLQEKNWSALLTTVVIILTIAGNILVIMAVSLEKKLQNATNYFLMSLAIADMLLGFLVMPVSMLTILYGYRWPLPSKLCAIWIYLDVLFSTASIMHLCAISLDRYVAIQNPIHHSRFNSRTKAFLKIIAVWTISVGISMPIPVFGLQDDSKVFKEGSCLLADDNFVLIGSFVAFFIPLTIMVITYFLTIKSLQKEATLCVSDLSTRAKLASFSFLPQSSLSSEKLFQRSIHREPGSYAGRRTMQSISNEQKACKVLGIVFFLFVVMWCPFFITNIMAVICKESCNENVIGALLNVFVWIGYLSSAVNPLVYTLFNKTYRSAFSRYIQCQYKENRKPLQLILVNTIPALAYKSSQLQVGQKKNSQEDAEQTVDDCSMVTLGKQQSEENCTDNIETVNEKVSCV
T2 sequence (P61169 whole entry): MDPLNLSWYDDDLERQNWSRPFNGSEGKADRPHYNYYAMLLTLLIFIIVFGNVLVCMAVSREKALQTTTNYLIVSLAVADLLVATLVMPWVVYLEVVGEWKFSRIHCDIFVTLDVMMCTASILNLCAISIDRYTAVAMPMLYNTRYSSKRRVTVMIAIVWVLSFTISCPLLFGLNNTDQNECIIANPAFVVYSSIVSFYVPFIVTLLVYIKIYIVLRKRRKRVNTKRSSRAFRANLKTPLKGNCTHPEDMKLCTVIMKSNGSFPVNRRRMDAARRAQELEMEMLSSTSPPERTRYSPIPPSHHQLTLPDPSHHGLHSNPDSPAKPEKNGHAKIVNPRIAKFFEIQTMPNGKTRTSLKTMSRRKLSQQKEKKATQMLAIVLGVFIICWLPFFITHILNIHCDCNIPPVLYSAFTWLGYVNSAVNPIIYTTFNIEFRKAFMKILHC

Structure (SMILES)	Ki (serotonin S2 receptor) [nM]	Ki (dopamine D2 receptor; [1]) [nM]	Ki (adrenergic α1 receptor) [nM]	Ki (dopamine D2 receptor; Ki value, dopamine D2 receptor) [nM]
CCC(O)c1cc(N2CCN(CC)CC2)cc(-c2ccccc2)c1Cl (stereo not drawn) [Example 138, 1Ethyl-4-[3-phenyl-4-chloro-5-(1-hydroxypropyl)]phenylpiperazine]	25	2.89	9.33	–
CCN1CCN(c2cc(NS(=O)(=O)c3ccc(F)cc3)c(Cl)c(-c3ccccc3C)c2)CC1 [Example 137, 1-Ethyl-4-[3-(2-tolyl)-4-chloro-5-(4-fluorophenylsulfonylamino)]phenylpiperazine]	144	0.64	312	–
CCN1CCN(c2cc(CCCC#N)c(OC)c(-c3ccccc3)c2)CC1 [Example 71, 1-Ethyl-4-[3-phenyl-4-methoxy-5-(3-cyanopropyl)]phenylpiperazine]	90.9	14.7	131	–
CCN1CCN(c2cc(-c3ccc(F)cc3C)c(Cl)c(S(=O)(=O)NC3CC3)c2)CC1 [Example 146, 1-Ethyl-4-{3-[2(4-fluorotolyl)-]4-chloro-5-cyclopropaneaminosulfonyl}phenylpiperazine]	13.2	0.83	349	–
CN1CCN(c2cc(NS(=O)(=O)Cc3ccccc3)c(Cl)c(-c3ccccc3Cl)c2)CC1 [Example 179, 1-Methyl-4-[3-(2-chlorophenyl)-4-chloro-5-benzylsulfonylamino]phenylpiperazine]	6.54	6.08	72.7	–
CCN1CCN(c2cc(-c3ccccc3C)c(Cl)c(C(F)(F)CC)c2)CC1 [Example 55, 1-Ethyl-4-[3-(2-tolyl)-4-chloro-5-(1,1-difluoropropyl)]phenylpiperazine]	113	3.1	> 1000	–
CC(C)S(=O)(=O)Nc1cc(N2CCN(C)CC2)cc(-c2ccccc2Cl)c1Cl [Example 182, 1-Methyl-4-(3-(2-chlorophenyl)-4-chloro-5-isopropylsulfonylamino]phenylpiperazine]	145	2.34	186	–
CCN1CCN(c2cc(-c3ccccc3)c(OC)c(C(O)Cc3ccccc3)c2)CC1 (stereo not drawn) [Example 94, 1-Etyl-4-[3-phenyl-4-methoxy-5-(1-hydroxyphenethyl)]phenylpiperazine]	109	13.8	600	–
C=CCCC(F)c1cc(N2CCN(CC)CC2)cc(-c2ccccc2C)c1Cl (stereo not drawn) [Example 160, 1-Ethyl-4-[3-(2-tolyl)-4-chloro-5-(1-fluoro-4-pentenyl)]phenylpiperazine]	14.8	13.6	> 1000	–
CCN1CCN(c2cc(COCc3ccncc3)c(Cl)c(-c3ccccc3C)c2)CC1 [Example 169, 1-Ethyl-4-[3-(2-tolyl)-4-chloro-5-(4-pyridyl)methoxymethyl]phenylpiperazine]	108	41.8	> 1000	–
CC[C@@H](F)c1cc(N2CCN(C)CC2)cc(-c2ccccc2C)c1Cl [Example 220, 1-Methyl-4-{3-(2-tolyl)-4-chloro-5-[1-(R)-fluoropropyl]}phenylpiperazine]	37.9	1.25	1680	–
CCCOCc1cc(N2CCN(CC)CC2)cc(-c2ccccc2C)c1Cl [Example 168, 1-Ethyl-4-[3-(2-tolyl)-4-chloro-5-propoxymethyl]phenylpiperazine]	180	31.9	> 1000	–
CCN1CCN(c2cc(CCC(C)=O)c(OC)c(-c3ccccc3)c2)CC1 [Example 114, 1-Ethyl-4-[3-phenyl-4-methoxy-5-(2-acetylethyl)]phenylpiperazine]	151	165	569	–
CCCCS(=O)(=O)Nc1cc(N2CCN(C)CC2)cc(-c2ccccc2Cl)c1Cl [Example 36, 1Methyl-4-[3-(2-chlorophenyl)-4-chloro-5-butanesulfonylamino]phenylpiperazine]	4.04	1.26	25.3	–
CCCc1cc(N2CCN(CC)CC2)cc(-c2ccccc2C)c1OC [Example 116, 1-Ethyl-4-[3-(2-tolyl)-4-methoxy-5-propyl]phenylpiperazine]	39.5	9.65	> 1000	–
CCN1CCN(c2cc(-c3ccc(F)cc3)c(OC)cc2C(C)C)CC1 [Example 79]	192	28.5	69.8	–
CCOC(=O)CCc1cc(N2CCN(CC)CC2)cc(-c2ccccc2)c1OC [Example 111, 1-Ethyl-4-[3-phenyl-4-methoxy-5-(2-ethoxycarbonylethyl)]phenylpiperazine]	58	41.9	210	–

Structure (SMILES)	Ki (serotonin S2 receptor) [nM]	Ki (dopamine D2 receptor; [1]) [nM]	Ki (adrenergic α1 receptor) [nM]	Ki (dopamine D2 receptor; Ki value, dopamine D2 receptor) [nM]
CCN1CCN(c2cc(NS(=O)(=O)CC)c(Cl)c(-c3ccccc3C)c2)CC1 [Example 18, 1-Ethyl-4-[3-(2-tolyl)-4-chloro-5-ethanesulfonylamino]phenylpiperazine]	6.15	0.75	53.7	–
CCC(F)c1cc(N2CCN(CC)CC2)cc(-c2ccccc2C)c1Cl (stereo not drawn) [Example 27, 1-Ethyl-4-[3-(2-tolyl)-4-chloro-5-(1-fluloropropyl)]phenylpiperazine]	10.9	11.2	455	–
CCC(=O)c1cc(N2CCN(CC)CC2)cc(-c2ccccc2)c1OC [Example 82, 1-Ethyl-4-(3-phenyl-4methoxy-5-propionyl)phenylpiperazine]	10.7	39.1	723	–
CCN1CCN(c2cc(-c3ccc(F)cc3C)c(Cl)c(S(=O)(=O)CC3CC3)c2)CC1 [Example 148, 1-Ethyl-4-{3-[2(4-fluorotolyl)]-4-chloro-5-cyclopropylmethylsulfonyl}phenylpiperazine]	22.4	12.1	278	–
CCN1CCN(c2cc(-c3ccccc3C)c(Cl)c(C(F)F)c2)CC1 [Example 185, 1-Ethyl-4-[3-(2-tolyl)-4-chloro-5-difluoromethyl]phenylpiperazine]	> 100	0.58	> 1000	–
CCCCS(=O)(=O)c1cc(N2CCN(CC)CC2)cc(-c2ccccc2)c1OC [Example 171, 1-Ethyl-4-(3-phenyl-4-methoxy-5-butanesulfonyl)phenylpiperazine]	2.74	86.7	> 1000	–
CCC(F)c1cc(N2CCN(CCCc3ccncc3)CC2)cc(-c2ccccc2C)c1Cl (stereo not drawn) [Example 150]	97.1	7.98	> 1000	–
CCC(F)c1cc(-c2ccccc2)cc(N2CCN(CC)CC2)c1 (stereo not drawn) [Example 129, 1-Ethyl-4-[3-phenyl-5-(1-fluoropropyl)]phenylpiperazine]	34.9	–	39.8	1.86
CCCC(F)c1cc(N2CCN(C)CC2)cc(-c2ccccc2Cl)c1Cl (stereo not drawn) [Example 178, 1-Methyl-4-[3-(2-chlorophenyl)-4-chloro-5-(1-fluorobutyl)]phenylpiperazine]	12.2	7.3	> 1000	–
CCN1CCN(c2cc(-c3ccccc3)c(Cl)c(S(=O)(=O)CC)c2)CC1 [Example 139, 1Ethyl-4-(3-phenyl-4-chloro-5-ethanesulfonyl)phenylpiperazine]	5.38	2.34	68.7	–
CCN1CCN(c2ccc(OC)c(-c3ccccc3)c2)CC1 [Example 57, 1-Ethyl-4-(3-phenyl-4-methoxy)phenylpiperazine]	> 1000	> 1000	> 1000	–
CCC(F)c1cc(N2CCN(CC)CC2)cc(-c2ccccc2OC)c1Cl (stereo not drawn) [Example 143, 1-Ethyl-4-[3-(2-methoxyphenyl)-4-chloro-5-(1-fluoropropyl)]phenylpiperazine]	156	16.9	> 1000	–
CCCS(=O)(=O)NCc1cc(N2CCN(CC)CC2)cc(-c2ccccc2C)c1Cl [Example 192, 1-Ethyl-4-[3-(2-tolyl)-4-chloro-5-propanesulfonylaminomethyl]phenylpiperazine]	374	> 100	550	–
CCN1CCN(c2cc(C(=O)Cc3ccc(F)cc3)c(OC)c(-c3ccccc3)c2)CC1 [Example 93, 1-Ethyl-4-[3-phenyl-4-methoxy-5-(4-fluorophenyl)acetyl]phenylpiperazine]	1.31	28	719	–
CCCc1cc(-c2ccccc2)cc(N2CCN(CC)CC2)c1OC [Example 113, 1-Ethyl-4-(3-phenyl-5-propyl-6-methoxy)phenylpiperazine hyrochloroide]	21.1	8.73	28.9	–
COc1c(C(=O)Cc2ccccc2)cc(N2CCN(Cc3ccccc3)CC2)cc1-c1ccccc1 [Example 126, 1-Benzyl-4-(3-phenyl-4-methoxy-5-phenylacetyl)phenylpiperazine]	27.3	54.6	> 1000	–
CCN1CCN(c2cc(COCC3CC3)c(Cl)c(-c3ccccc3C)c2)CC1 [Example 176, 1-Ethyl-4-[3-(2-tolyl)-4-chloro-5-cyclopropylmethoxymethyl]phenylpiperazine]	178	> 100	> 1000	–
